Test results published in US9579408B2, “PET/SPECT agents for applications in biomedical imaging” (Washington University, priority 2011, dated 2017).
Read-outs that look alike come from different tables or passages of the source.

Experiments:
[1] = rat, i.v. tail-vein, 60 min post-injection
Procedure: This Example illustrates MicroPET imaging of myocardial perfusion in a rat. In these experiments, ^68Ga-radiopharmaceutical 1B was injected intravenously into a rat tail-vein; MicroPET images were obtained 60 min. (FIG. 6) post-injection.

MDR1 Pgp (ABCB1) = details: mdr1a/1b (-/-) (dKO) mice, n = 3
[2] = rats, n = 3
[3] = NanoSPECT/CT imaging in rat; type: in vivo; details: i.v. tail-vein, 30 min and 250 min post-injection
Procedure: (FIG. 4) and 250 min. (FIG. 5) post-injection. The arrows indicate heart uptake.

[4] = Quantitative biodistribution in wild-type (WT) mice; details: n = 3
Procedure: All bioassays were performed as described in earlier publications.

CC(C)Oc1cccc2c1[O][68Ga-3]1345[O]c6c(cccc6OC(C)C)C=[N+]1CC(C)(C)C[NH+]3CC[NH+]4CC(C)(C)C[N+]5=C2.[I-] (stereo not drawn) [Agent 1B, [ENBDMP-3-isopropoxy-PI-^68Ga]^+]
MicroPET image finding [1]: low level of signal from liver compared to the heart

CC(C)Oc1cccc2c1[O][67Ga+][O]c1c(cccc1OC(C)C)C=NCC(C)(C)CNCCNCC(C)(C)CN=C2.[I-] [Agent 1A, [ENBDMP-3-isopropoxy-PI-^67Ga]^+]
Biodistribution, blood (MDR1 Pgp (ABCB1); 5 min P.I.): 1.54 % ID/g
Biodistribution, blood (MDR1 Pgp (ABCB1); 15 min P.I.): 0.64 % ID/g
Biodistribution, blood (MDR1 Pgp (ABCB1); 60 min P.I.): 0.34 % ID/g
Biodistribution, blood (MDR1 Pgp (ABCB1); 120 min P.I.): 0.19 % ID/g
Biodistribution, brain (MDR1 Pgp (ABCB1); 5 min P.I.): 1.05 % ID/g
Biodistribution, brain (MDR1 Pgp (ABCB1); 15 min P.I.): 0.65 % ID/g
Biodistribution, brain (MDR1 Pgp (ABCB1); 60 min P.I.): 0.99 % ID/g
Biodistribution, brain (MDR1 Pgp (ABCB1); 120 min P.I.): 0.96 % ID/g
Biodistribution, heart (MDR1 Pgp (ABCB1); 5 min P.I.): 17.02 % ID/g
Biodistribution, heart (MDR1 Pgp (ABCB1); 15 min P.I.): 10.59 % ID/g
Biodistribution, heart (MDR1 Pgp (ABCB1); 60 min P.I.): 14.61 % ID/g
Biodistribution, heart (MDR1 Pgp (ABCB1); 120 min P.I.): 20.29 % ID/g
Biodistribution, kidneys (MDR1 Pgp (ABCB1); 5 min P.I.): 86.12 % ID/g
Biodistribution, kidneys (MDR1 Pgp (ABCB1); 15 min P.I.): 84.19 % ID/g
Biodistribution, kidneys (MDR1 Pgp (ABCB1); 60 min P.I.): 95.60 % ID/g
Biodistribution, kidneys (MDR1 Pgp (ABCB1); 120 min P.I.): 115.23 % ID/g
Biodistribution, liver (MDR1 Pgp (ABCB1); 5 min P.I.): 46.34 % ID/g
Biodistribution, liver (MDR1 Pgp (ABCB1); 15 min P.I.): 46.45 % ID/g
Biodistribution, liver (MDR1 Pgp (ABCB1); 60 min P.I.): 42.54 % ID/g
Biodistribution, liver (MDR1 Pgp (ABCB1); 120 min P.I.): 29.82 % ID/g
Biodistribution, blood ([2]; 5 min P.I.): 0.175 % ID/g
Biodistribution, blood ([2]; 15 min P.I.): 0.041 % ID/g
Biodistribution, blood ([2]; 60 min P.I.): 0.028 % ID/g
Biodistribution, blood ([2]; 120 min P.I.): 0.012 % ID/g
Biodistribution, brain ([2]; 5 min P.I.): 0.024 % ID/g
Biodistribution, brain ([2]; 15 min P.I.): 0.015 % ID/g
Biodistribution, brain ([2]; 60 min P.I.): 0.018 % ID/g
Biodistribution, brain ([2]; 120 min P.I.): 0.016 % ID/g
Biodistribution, heart ([2]; 5 min P.I.): 1.443 % ID/g
Biodistribution, heart ([2]; 15 min P.I.): 1.306 % ID/g
Biodistribution, heart ([2]; 60 min P.I.): 1.386 % ID/g
Biodistribution, heart ([2]; 120 min P.I.): 1.516 % ID/g
Biodistribution, kidneys ([2]; 5 min P.I.): 8.142 % ID/g
Biodistribution, kidneys ([2]; 15 min P.I.): 5.168 % ID/g
Biodistribution, kidneys ([2]; 60 min P.I.): 4.201 % ID/g
Biodistribution, kidneys ([2]; 120 min P.I.): 3.543 % ID/g
Biodistribution, liver ([2]; 5 min P.I.): 2.615 % ID/g
Biodistribution, liver ([2]; 15 min P.I.): 0.657 % ID/g
Biodistribution, liver ([2]; 60 min P.I.): 0.328 % ID/g
Biodistribution, liver ([2]; 120 min P.I.): 0.203 % ID/g
Biodistribution, lung ([2]; 5 min P.I.): 0.814 % ID/g
Biodistribution, lung ([2]; 15 min P.I.): 0.626 % ID/g
Biodistribution, lung ([2]; 60 min P.I.): 0.559 % ID/g
Biodistribution, lung ([2]; 120 min P.I.): 0.591 % ID/g
NanoSPECT/CT image finding [3]: heart uptake
Biodistribution, blood ([4]; 5 min P.I.): 1.26 % ID/g
Biodistribution, blood ([4]; 15 min P.I.): 0.29 % ID/g
Biodistribution, blood ([4]; 60 min P.I.): 0.10 % ID/g
Biodistribution, blood ([4]; 120 min P.I.): 0.07 % ID/g
Biodistribution, brain ([4]; 5 min P.I.): 0.14 % ID/g
Biodistribution, brain ([4]; 15 min P.I.): 0.12 % ID/g
Biodistribution, brain ([4]; 60 min P.I.): 0.09 % ID/g
Biodistribution, brain ([4]; 120 min P.I.): 0.06 % ID/g
Biodistribution, heart ([4]; 5 min P.I.): 9.21 % ID/g
Biodistribution, heart ([4]; 15 min P.I.): 8.37 % ID/g
Biodistribution, heart ([4]; 60 min P.I.): 11.98 % ID/g
Biodistribution, heart ([4]; 120 min P.I.): 9.81 % ID/g
Biodistribution, kidneys ([4]; 5 min P.I.): 81.04 % ID/g
Biodistribution, kidneys ([4]; 15 min P.I.): 83.46 % ID/g
Biodistribution, kidneys ([4]; 60 min P.I.): 93.35 % ID/g
Biodistribution, kidneys ([4]; 120 min P.I.): 67.91 % ID/g
Biodistribution, liver ([4]; 5 min P.I.): 44.95 % ID/g
Biodistribution, liver ([4]; 15 min P.I.): 33.80 % ID/g
Biodistribution, liver ([4]; 60 min P.I.): 7.44 % ID/g
Biodistribution, liver ([4]; 120 min P.I.): 2.90 % ID/g
